Here are results for 15 molecules from patent US20250228239A1, “MOLECULES HAVING PESTICIDAL UTILITY, AND INTERMEDIATES, COMPOSITIONS, AND PROCESSES, RELATED THERETO” (priority 2024, published 2025).

Where two headings read alike, the source gives them in different places.

Common to all, as to type: in vivo
The subject of assay [1] is Green Peach Aphid (Myzus persicae, MYZUPE). Kind of assay: Bioassays on Green Peach Aphid (GPA), foliar spray on cabbage seedlings. The conditions noted are these: 72 h. As for the experimental part:
Certain molecules disclosed in this document were tested against GPA using procedures described in the following example. In the reporting of the results, the “GPA & YFM Rating Table” was used (See Table Section).
Cabbage seedlings grown in 3-inch pots, with 2-3 small (3-5 cm) true leaves, were used as test substrate. The seedlings were infested with 20-50 GPA (wingless adult and nymph stages) one day prior to chemical application. Four pots with individual seedlings were used for each treatment. Test molecules (2 mg) were dissolved in 2 mL of acetone/methanol (1:1) solvent, forming stock solutions of 1000 ppm test molecule. The stock solutions were diluted 5× with 0.025% Tween 20 in water to obtain the solution at 200 ppm test molecule. A hand-held aspirator-type sprayer was used for spraying a solution to both sides of […] leaves until runoff. Reference plants (solvent check) were sprayed with the diluent only containing 20% by volume of acetone/methanol (1:1) solvent. Treated plants were held in a holding room for three days at approximately 25° C. and ambient relative humidity (RH) prior to grading. Evaluation was conducted by counting the number of live aphids per plant under a microscope. Percent control was measured using Abbott's correction formula (W. S. Abbott, “A Method of Computing the Effectiveness of an Insecticide” J. Econ. Entomol. 18 (1925), pp. 265-267) as follows. Corrected % Control=100*(X−Y)/X where X=No. of live aphids on solvent check plants and Y=No. of live aphids on treated plants. The results are indicated in the table entitled “Table ABC: Biological Results” (See Table Section).

Assay [2] relates to Beet Armyworm (Spodoptera exigua, LAPHEG). Kind of assay: Bioassays on Beet Armyworm (BAW), 128-well diet tray assay. As to conditions: Spodoptera exigua. An outline of the steps:
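Test molecule was dissolved in 90:10 acetone-water and applied at 50 μg/cm^2 onto artificial diet in eight wells, then dried. Second instar larvae, one to five per well, were added, and trays were kept vented at 25° C. with a 14:10 photoperiod for five to seven days before mortality was recorded.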

For assay [3], the system named is Cabbage Looper (Trichoplusia ni, TRIPNI). Kind of assay: Bioassays on Cabbage Looper (CL), 128-well diet tray assay. The conditions noted are these: Trichoplusia ni. An outline of the steps:
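Diet tray, 2nd instar, 1–5 larvae/well; 50 μg/cm^2 compound surface-applied (acetone:water 90:10), dried; 8 wells/treatment; 25° C, 14:10 L:D, 5–7 d; % mortality, mean of 8 wells.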

In assay [4] the test system is Yellow Fever Mosquito (Aedes aegypti, AEDSAE). As to conditions: for YFM rating: Table ABC / ABC-DP rating. An outline of the steps:
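Mortality after 3 days at room temperature is the read-out, scored well by well and converted to a rating. Test molecules came from 4000 ppm stocks in DMSO, further diluted in 90:10 water/acetone, and were exposed to roughly 1-day-old larvae suspended in liver-powder water.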

Setting [5] is: Green Peach Aphid, rating class, read-out: GPA.
The mark [6] stands for this setting: Beet Armyworm, rating class, read-out: BAW.
Where [7] appears, read: Cabbage Looper, rating class, read-out: CL.
[8] abbreviates: Table ABC: Biological Results, species GPA, read-out: GPA.
The mark [9] stands for this setting: Table ABC: Biological Results, species BAW, read-out: BAW.
The mark [10] stands for this setting: Table ABC: Biological Results, species CL, read-out: CL.
Setting [11] is: Beet Armyworm, Table ABC / ABC-DP rating, read-out: BAW rating.
[12] abbreviates: Cabbage Looper, Table ABC / ABC-DP rating, read-out: CL rating.
The mark [13] stands for this setting: Table ABC: Biological Results, species YFM.

`COCC(=O)Nc1c(F)ccc(NC(=O)c2cc(NC(=O)[C@H]3[C@H](c4ccc(F)c(C(F)(F)F)c4)C3(Cl)Cl)ccc2Cl)c1F` [F1724, 2-Chloro-5-((1R,3R)-2,2-dichloro-3-(4-fluoro-3-(trifluoromethyl)phenyl)cyclopropane-1-carboxamido)-N-(2,4-difluoro-3-(2-methoxyacetamido)phenyl)benzamide]: the pest or weed control at 200 µg/mL in assay [1] (setting [5]) is 80 to 100%. Moreover, the pest or weed control at 50 µg/cm2 in assay [2] (setting [6]) and in assay [3] (setting [7]) was 50 to 100% each time.
With `CC(=O)Nc1c(F)ccc(NC(=O)c2cc(NC(=O)[C@H]3[C@H](c4ccc(F)c(C(F)(F)F)c4)C3(Cl)Cl)ccc2F)c1F` [F1531, N-(3-acetamido-2,4-difluorophenyl)-5-((1R,3R)-2,2-dichloro-3-(4-fluoro-3-(trifluoromethyl)phenyl)cyclopropane-1-carboxamido)-2-fluorobenzamide], in assay [1] (setting [5]), the pest or weed control at 200 µg/mL lay in the range of 0 to 80%. In addition, the pest or weed control at 50 µg/cm2 in assay [2] (setting [6]) and in assay [3] (setting [7]) was 50 to 100% in each case.
Take `CC(=O)Nc1ccc(F)c(NC(=O)c2cc(NC(=O)[C@H]3[C@H](c4cc(Cl)cc(Cl)c4)C3(Cl)Cl)cc(F)c2Cl)c1F` [F1505, N-(3-acetamido-2,6-difluorophenyl)-2-chloro-5-((1R,3R)-2,2-dichloro-3-(3,5-dichlorophenyl)cyclopropane-1-carboxamido)-3-fluorobenzamide]: the pest or weed control at 200 µg/mL in assay [1] (setting [5]) fell in the range of 0 to 80%. Further, the pest or weed control at 50 µg/cm2 in assay [2] (setting [6]) and in assay [3] (setting [7]) was 50 to 100% each time.
On to `Cc1c(Cl)cc(NC(=O)[C@H]2[C@H](c3ccc(F)c(Cl)c3)C2(Cl)Cl)cc1C(=O)Nc1ccc(F)cc1F` (relative stereo) [F1190, trans-3-Chloro-5-(2,2-dichloro-3-(3-chloro-4-fluorophenyl)cyclopropane-1-carboxamido)-N-(2,4-difluorophenyl)-2-methylbenzamide], for which the pest or weed control at 200 µg/mL in assay [1] (setting [8]) was 80 to 100%. Also, the pest or weed control at 50 µg/cm2 in assay [2] (setting [9]) and in assay [3] (setting [10]) was 50 to 100% in each case.
In the case of `O=C(NNC(=O)c1cc(NC(=O)[C@H]2[C@H](c3cc(Cl)cc(Cl)c3)C2(Cl)Cl)ccc1Cl)Nc1ccccc1` (relative stereo) [F2537, trans-2-(2-Chloro-5-(2,2-dichloro-3-(3,5-dichlorophenyl)cyclopropane-1-carboxamido)benzoyl)-N-phenylhydrazine-1-carboxamide], the pest or weed control at 200 µg/mL in assay [1] (Green Peach Aphid, Table ABC / ABC-DP rating, read-out: GPA rating) lay in the range of 80 to 100%. Further, the pest or weed control at 50 µg/cm2 in assay [2] (setting [11]) and in assay [3] (setting [12]) was 50 to 100% in each case.
On to `O=C(Nc1ccc(F)c(NC(=O)C(F)F)c1F)c1cc(NC(=O)[C@H]2[C@H](c3ccc(F)c(C(F)(F)F)c3)C2(Cl)Cl)ccc1F` [F1530, 5-((1R,3R)-2,2-Dichloro-3-(4-fluoro-3-(trifluoromethyl)phenyl)cyclopropane-1-carboxamido)-N-(3-(2,2-difluoroacetamido)-2,4-difluorophenyl)-2-fluorobenzamide], for which, in assay [1] (setting [5]), the pest or weed control at 200 µg/mL lay in the range of 0 to 80%. Besides, the pest or weed control at 50 µg/cm2 in assay [2] (setting [6]) and in assay [3] (setting [7]) was 50 to 100% in each case.
In the case of `O=C(Nc1cc(NC(=O)C(Cl)Cl)c(F)cc1F)c1cc(NC(=O)[C@H]2[C@H](c3ccc(Cl)c(Cl)c3)C2(Cl)Cl)ccc1Cl` [F1244, 2-Chloro-5-((1R,3R)-2,2-dichloro-3-(3,4-dichlorophenyl)cyclopropane-1-carboxamido)-N-(5-(2,2-dichloroacetamido)-2,4-difluorophenyl)benzamide], in assay [1] (setting [8]), the pest or weed control at 200 µg/mL is 0 to 80%. Besides, the pest or weed control at 50 µg/cm2 in assay [2] (setting [9]) and in assay [3] (setting [10]) was 50 to 100% in each case.
Regarding `CC(=O)Nc1cc(F)c(NC(=O)c2cc(NC(=O)[C@H]3[C@H](c4ccc(Cl)c(Cl)c4)C3(Cl)Cl)ccc2Cl)c(F)c1` [F1262, N-(4-Acetamido-2,6-difluorophenyl)-2-chloro-5-((1R,3R)-2,2-dichloro-3-(3,4-dichlorophenyl)cyclopropane-1-carboxamido)benzamide], the pest or weed control at 200 µg/mL in assay [1] (setting [8]) lay in the range of 80 to 100%. In addition, the pest or weed control at 50 µg/cm2 in assay [2] (setting [9]) and in assay [3] (setting [10]) was 50 to 100% throughout.
Consider `N#CCC(=O)Nc1c(F)ccc(NC(=O)c2cc(NC(=O)[C@H]3[C@H](c4ccc(F)c(Cl)c4)C3(Cl)Cl)ccc2Cl)c1F` [F1700, 2-Chloro-N-(3-(2-cyanoacetamido)-2,4-difluorophenyl)-5-((1R,3R)-2,2-dichloro-3-(3-chloro-4-fluorophenyl)cyclopropane-1-carboxamido)benzamide], for which the pest or weed control at 200 µg/mL in assay [1] (setting [5]) was in the range of 0 to 80%. For the same molecule, the pest or weed control at 50 µg/cm2 in assay [2] (setting [6]) and in assay [3] (setting [7]) was 50 to 100% in each case.
As for `CC(=O)Nc1c(F)ccc(NC(=O)c2cc(NC(=O)[C@H]3[C@H](c4ccc(Cl)c(C(F)(F)F)c4)C3(Cl)Cl)ccc2Cl)c1F` [F1658, N-(3-Acetamido-2,4-difluorophenyl)-2-chloro-5-((1R,3R)-2,2-dichloro-3-(4-chloro-3-(trifluoromethyl)phenyl)cyclopropane-1-carboxamido)benzamide], the pest or weed control at 200 µg/mL in assay [1] (setting [5]) was 0 to 80%. Also, the pest or weed control at 50 µg/cm2 in assay [2] (setting [6]) and in assay [3] (setting [7]) was 50 to 100% throughout.
In the case of `O=C(CC1(C(F)(F)F)CC1)Nc1c(F)ccc(NC(=O)c2cc(NC(=O)[C@H]3[C@H](c4ccc(F)c(C(F)(F)F)c4)C3(Cl)Cl)ccc2Cl)c1F` [F1836, 2-Chloro-5-((1R,3R)-2,2-dichloro-3-(4-fluoro-3-(trifluoromethyl)phenyl)cyclopropane-1-carboxamido)-N-(2,4-difluoro-3-(2-(1-(trifluoromethyl)cyclopropyl)acetamido)phenyl)benzamide], the YFM rating entry in assay [4] (Yellow Fever Mosquito) is on record as “A (80–100)”. Besides, the pest or weed control at 50 µg/cm2 in assay [2] (setting [11]) and in assay [3] (setting [12]) was 50 to 100% each time.
Take `CC(C)(C)OC(=O)Nc1c(F)ccc(NC(=O)c2cc(NC(=O)[C@H]3[C@H](c4ccc(F)c(C(F)(F)F)c4)C3(Cl)Cl)ccc2Cl)c1F` [F1053, tert-Butyl-(3-(2-chloro-5-((1R,3R)-2,2-dichloro-3-(4-fluoro-3-(trifluoromethyl)phenyl)cyclopropane-1-carboxamido)benzamido)-2,6-difluorophenyl)carbamate]: the YFM result in assay [4] (setting [13]) was “A (80–100)”. Further, the pest or weed control at 50 µg/cm2 in assay [2] (setting [9]) and in assay [3] (setting [10]) was 50 to 100% each time.
In the case of `CC(=O)Nc1ccc(F)c(NC(=O)c2cc(NC(=O)[C@H]3[C@H](c4ccc(F)c(C(F)(F)F)c4)C3(Cl)Cl)ccc2F)c1F` [F1562, N-(3-Acetamido-2,6-difluorophenyl)-5-((1R,3R)-2,2-dichloro-3-(4-fluoro-3-(trifluoromethyl)phenyl)cyclopropane-1-carboxamido)-2-fluorobenzamide], the YFM result in assay [4] (Yellow Fever Mosquito, rating class) is on record as “A (80–100)”. Also, the pest or weed control at 50 µg/cm2 in assay [2] (setting [6]) and in assay [3] (setting [7]) was 50 to 100% each time.
For `O=C(Nc1ccc(F)c(NC(=O)C(Cl)Cl)c1F)c1cc(NC(=O)[C@H]2[C@H](c3ccc(Cl)c(Cl)c3)C2(Cl)Cl)ccc1Cl` [F1252, 2-Chloro-5-((1R,3R)-2,2-dichloro-3-(3,4-dichlorophenyl)cyclopropane-1-carboxamido)-N-(3-(2,2-dichloroacetamido)-2,4-difluorophenyl)benzamide], in assay [4] (setting [13]), the YFM result is “A (80–100)”. Further, the pest or weed control at 50 µg/cm2 in assay [2] (setting [9]) and in assay [3] (setting [10]) was 50 to 100% throughout.
Consider `CCN(C(=O)COC(F)(F)F)c1c(F)ccc(NC(=O)c2cc(NC(=O)[C@H]3[C@H](c4ccc(F)c(C(F)(F)F)c4)C3(Cl)Cl)ccc2Cl)c1F` [F1789, 2-Chloro-5-((1R,3R)-2,2-dichloro-3-(4-fluoro-3-(trifluoromethyl)phenyl)cyclopropane-1-carboxamido)-N-(3-(N-ethyl-2-(trifluoromethoxy)acetamido)-2,4-difluorophenyl)benzamide], for which, in assay [4] (Yellow Fever Mosquito), the YFM rating result is reported as “A (80–100)”. Moreover, the pest or weed control at 50 µg/cm2 in assay [2] (setting [11]) and in assay [3] (setting [12]) was 50 to 100% throughout.
